{"source": "ChEMBL document CHEMBL4004849", "about": "“Tetrazolylmethyl quinolines: Design, docking studies, synthesis, anticancer and antifungal analyses” (2017)", "format_in_all_cases": "functional", "key": {"HL-60(TB)": {"tested_on": "HL-60(TB)", "assay": "Growth inhibition of human HL-60(TB) cells at 10^-5 M incubated for 48 hrs by sulforhodamine B assay relative to control"}, "K562": {"tested_on": "K562", "assay": "Growth inhibition of human K562 cells at 10^-5 M incubated for 48 hrs by sulforhodamine B assay relative to control"}, "MOLT-4": {"tested_on": "MOLT-4", "assay": "Growth inhibition of human MOLT4 cells at 10^-5 M incubated for 48 hrs by sulforhodamine B assay relative to control"}, "SR": {"tested_on": "SR", "assay": "Growth inhibition of human SR cells at 10^-5 M incubated for 48 hrs by sulforhodamine B assay relative to control"}, "A549": {"tested_on": "A549", "assay": "Growth inhibition of human A549/ATCC cells at 10^-5 M incubated for 48 hrs by sulforhodamine B assay relative to control"}, "EKVX": {"tested_on": "EKVX", "assay": "Growth inhibition of human EKVX cells at 10^-5 M incubated for 48 hrs by sulforhodamine B assay relative to control"}, "NCI-H226": {"tested_on": "NCI-H226", "assay": "Growth inhibition of human NCI-H226 cells at 10^-5 M incubated for 48 hrs by sulforhodamine B assay relative to control"}, "NCI-H23": {"tested_on": "NCI-H23", "assay": "Growth inhibition of human NCI-H23 cells at 10^-5 M incubated for 48 hrs by sulforhodamine B assay relative to control"}, "NCI-H460": {"tested_on": "NCI-H460", "assay": "Growth inhibition of human NCI-H460 cells at 10^-5 M incubated for 48 hrs by sulforhodamine B assay relative to control"}, "HCC 2998": {"tested_on": "HCC 2998", "assay": "Growth inhibition of human HCC2998 cells at 10^-5 M incubated for 48 hrs by sulforhodamine B assay relative to control"}, "HCT-116": {"tested_on": "HCT-116", "assay": "Growth inhibition of human HCT116 cells at 10^-5 M incubated for 48 hrs by sulforhodamine B assay relative to control"}, "SW-620": {"tested_on": "SW-620", "assay": "Growth inhibition of human SW620 cells at 10^-5 M incubated for 48 hrs by sulforhodamine B assay relative to control"}, "SF-268": {"tested_on": "SF-268", "assay": "Growth inhibition of human SF268 cells at 10^-5 M incubated for 48 hrs by sulforhodamine B assay relative to control"}, "SF-295": {"tested_on": "SF-295", "assay": "Growth inhibition of human SF295 cells at 10^-5 M incubated for 48 hrs by sulforhodamine B assay relative to control"}, "SF-539": {"tested_on": "SF-539", "assay": "Growth inhibition of human SF539 cells at 10^-5 M incubated for 48 hrs by sulforhodamine B assay relative to control"}, "SNB-19": {"tested_on": "SNB-19", "assay": "Growth inhibition of human SNB19 cells at 10^-5 M incubated for 48 hrs by sulforhodamine B assay relative to control"}, "SNB-75": {"tested_on": "SNB-75", "assay": "Growth inhibition of human SNB75 cells at 10^-5 M incubated for 48 hrs by sulforhodamine B assay relative to control"}, "U-251": {"tested_on": "U-251", "assay": "Growth inhibition of human U251 cells at 10^-5 M incubated for 48 hrs by sulforhodamine B assay relative to control"}, "LOX IMVI": {"tested_on": "LOX IMVI", "assay": "Growth inhibition of human LOXIMVI cells at 10^-5 M incubated for 48 hrs by sulforhodamine B assay relative to control"}, "Malme-3M": {"tested_on": "Malme-3M", "assay": "Growth inhibition of human MALME-3M cells at 10^-5 M incubated for 48 hrs by sulforhodamine B assay relative to control"}, "M14": {"tested_on": "M14", "assay": "Growth inhibition of human M14 cells at 10^-5 M incubated for 48 hrs by sulforhodamine B assay relative to control"}, "MDA-MB-435": {"tested_on": "MDA-MB-435", "assay": "Growth inhibition of human MDA-MB-435 cells at 10^-5 M incubated for 48 hrs by sulforhodamine B assay relative to control"}, "SK-MEL-28": {"tested_on": "SK-MEL-28", "assay": "Growth inhibition of human SK-MEL-28 cells at 10^-5 M incubated for 48 hrs by sulforhodamine B assay relative to control"}, "UACC-257": {"tested_on": "UACC-257", "assay": "Growth inhibition of human UACC257 cells at 10^-5 M incubated for 48 hrs by sulforhodamine B assay relative to control"}, "UACC-62": {"tested_on": "UACC-62", "assay": "Growth inhibition of human UACC62 cells at 10^-5 M incubated for 48 hrs by sulforhodamine B assay relative to control"}, "IGROV-1": {"tested_on": "IGROV-1", "assay": "Growth inhibition of human IGROV1 cells at 10^-5 M incubated for 48 hrs by sulforhodamine B assay relative to control"}, "OVCAR-3": {"tested_on": "OVCAR-3", "assay": "Growth inhibition of human OVCAR3 cells at 10^-5 M incubated for 48 hrs by sulforhodamine B assay relative to control"}, "OVCAR-5": {"tested_on": "OVCAR-5", "assay": "Growth inhibition of human OVCAR5 cells at 10^-5 M incubated for 48 hrs by sulforhodamine B assay relative to control"}, "OVCAR-8": {"tested_on": "OVCAR-8", "assay": "Growth inhibition of human OVCAR8 cells at 10^-5 M incubated for 48 hrs by sulforhodamine B assay relative to control"}, "SK-OV-3": {"tested_on": "SK-OV-3", "assay": "Growth inhibition of human SKOV3 cells at 10^-5 M incubated for 48 hrs by sulforhodamine B assay relative to control"}, "786-0": {"tested_on": "786-0", "assay": "Growth inhibition of human 786-0 cells at 10^-5 M incubated for 48 hrs by sulforhodamine B assay relative to control"}, "ACHN": {"tested_on": "ACHN", "assay": "Growth inhibition of human ACHN cells at 10^-5 M incubated for 48 hrs by sulforhodamine B assay relative to control"}, "CAKI-1": {"tested_on": "CAKI-1", "assay": "Growth inhibition of human Caki1 cells at 10^-5 M incubated for 48 hrs by sulforhodamine B assay relative to control"}, "SN12C": {"tested_on": "SN12C", "assay": "Growth inhibition of human SN12C cells at 10^-5 M incubated for 48 hrs by sulforhodamine B assay relative to control"}, "TK-10": {"tested_on": "TK-10", "assay": "Growth inhibition of human TK10 cells at 10^-5 M incubated for 48 hrs by sulforhodamine B assay relative to control"}, "UO-31": {"tested_on": "UO-31", "assay": "Growth inhibition of human UO31 cells at 10^-5 M incubated for 48 hrs by sulforhodamine B assay relative to control"}, "MDA-MB-231": {"tested_on": "MDA-MB-231", "assay": "Growth inhibition of human MDA-MB-231/ATCC cells at 10^-5 M incubated for 48 hrs by sulforhodamine B assay relative to control"}, "Hs-578T": {"tested_on": "Hs-578T", "assay": "Growth inhibition of human Hs 578T cells at 10^-5 M incubated for 48 hrs by sulforhodamine B assay relative to control"}, "BT-549": {"tested_on": "BT-549", "assay": "Growth inhibition of human BT549 cells at 10^-5 M incubated for 48 hrs by sulforhodamine B assay relative to control"}, "T47D": {"tested_on": "T47D", "assay": "Growth inhibition of human T47D cells at 10^-5 M incubated for 48 hrs by sulforhodamine B assay relative to control"}, "MDA-MB-468": {"tested_on": "MDA-MB-468", "assay": "Growth inhibition of human MDA-MB-468 cells at 10^-5 M incubated for 48 hrs by sulforhodamine B assay relative to control"}, "Candida albicans [1]": {"tested_on": "Candida albicans", "assay": "Antifungal activity against Candida albicans at 100 ug/ml by disc diffusion method", "details": "read-out: IZ"}, "Candida albicans [2]": {"tested_on": "Candida albicans", "assay": "Antifungal activity against Candida albicans after 24 hrs by serial dilution method"}, "Aspergillus fumigatus [3]": {"tested_on": "Aspergillus fumigatus", "assay": "Antifungal activity against Aspergillus fumigatus at 100 ug/ml by disc diffusion method", "details": "read-out: IZ"}, "Aspergillus fumigatus [4]": {"tested_on": "Aspergillus fumigatus", "assay": "Antifungal activity against Aspergillus fumigatus after 24 hrs by serial dilution method"}}, "note": "The source made the active and inactive calls. No cut-off for these calls is given here.", "data": [{"compound": "COc1ccc2nc(Cl)c(Cn3nnnc3CSc3ccccc3)cc2c1", "values": [{"measurement": "growth inhibition (GI)", "setting": "HL-60(TB)", "result": "Active"}, {"measurement": "growth inhibition (GI)", "setting": "K562", "result": "Active"}, {"measurement": "growth inhibition (GI)", "setting": "MOLT-4", "result": "Active"}, {"measurement": "growth inhibition (GI)", "setting": "SR", "result": "Active"}, {"measurement": "growth inhibition (GI)", "setting": "A549", "result": "Active"}, {"measurement": "growth inhibition (GI)", "setting": "EKVX", "result": "Active"}, {"measurement": "growth inhibition (GI)", "setting": "NCI-H226", "result": "Active"}, {"measurement": "growth inhibition (GI)", "setting": "NCI-H23", "result": "Active"}, {"measurement": "growth inhibition (GI)", "setting": "NCI-H460", "result": "Active"}, {"measurement": "growth inhibition (GI)", "setting": "HCC 2998", "result": "Active"}, {"measurement": "growth inhibition (GI)", "setting": "HCT-116", "result": "Active"}, {"measurement": "growth inhibition (GI)", "setting": "SW-620", "result": "Active"}, {"measurement": "growth inhibition (GI)", "setting": "SF-268", "result": "Active"}, {"measurement": "growth inhibition (GI)", "setting": "SF-295", "result": "Active"}, {"measurement": "growth inhibition (GI)", "setting": "SF-539", "result": "Active"}, {"measurement": "growth inhibition (GI)", "setting": "SNB-19", "result": "Active"}, {"measurement": "growth inhibition (GI)", "setting": "SNB-75", "result": "Active"}, {"measurement": "growth inhibition (GI)", "setting": "U-251", "result": "Active"}, {"measurement": "growth inhibition (GI)", "setting": "LOX IMVI", "result": "Active"}, {"measurement": "growth inhibition (GI)", "setting": "Malme-3M", "result": "Active"}, {"measurement": "growth inhibition (GI)", "setting": "M14", "result": "Active"}, {"measurement": "growth inhibition (GI)", "setting": "MDA-MB-435", "result": "Active"}, {"measurement": "growth inhibition (GI)", "setting": "SK-MEL-28", "result": "Active"}, {"measurement": "growth inhibition (GI)", "setting": "UACC-257", "result": "Active"}, {"measurement": "growth inhibition (GI)", "setting": "UACC-62", "result": "Active"}, {"measurement": "growth inhibition (GI)", "setting": "IGROV-1", "result": "Active"}, {"measurement": "growth inhibition (GI)", "setting": "OVCAR-3", "result": "Active"}, {"measurement": "growth inhibition (GI)", "setting": "OVCAR-5", "result": "Active"}, {"measurement": "growth inhibition (GI)", "setting": "OVCAR-8", "result": "Active"}, {"measurement": "growth inhibition (GI)", "setting": "SK-OV-3", "result": "Active"}, {"measurement": "growth inhibition (GI)", "setting": "786-0", "result": "Active"}, {"measurement": "growth inhibition (GI)", "setting": "ACHN", "result": "Active"}, {"measurement": "growth inhibition (GI)", "setting": "CAKI-1", "result": "Active"}, {"measurement": "growth inhibition (GI)", "setting": "SN12C", "result": "Active"}, {"measurement": "growth inhibition (GI)", "setting": "TK-10", "result": "Active"}, {"measurement": "growth inhibition (GI)", "setting": "UO-31", "result": "Active"}, {"measurement": "growth inhibition (GI)", "setting": "MDA-MB-231", "result": "Active"}, {"measurement": "growth inhibition (GI)", "setting": "Hs-578T", "result": "Active"}, {"measurement": "growth inhibition (GI)", "setting": "BT-549", "result": "Active"}, {"measurement": "growth inhibition (GI)", "setting": "T47D", "result": "Active"}, {"measurement": "growth inhibition (GI)", "setting": "MDA-MB-468", "result": "Active"}, {"measurement": "zone of inhibition at 100 µg/mL", "setting": "Candida albicans [1]", "result": 18, "unit": "mm"}, {"measurement": "MIC", "setting": "Candida albicans [2]", "result": 25, "unit": "µg/mL"}, {"measurement": "zone of inhibition at 100 µg/mL", "setting": "Aspergillus fumigatus [3]", "result": 18, "unit": "mm"}, {"measurement": "MIC", "setting": "Aspergillus fumigatus [4]", "result": 10, "unit": "µg/mL"}]}]}
